Measurements: US4244869A, “Benzodiazepine derivatives and process of making them” (Kali-Chemie A.G., priority 1972, dated 1981)

Legend:
mice [1] = experiment: Isolation aggressiveness (anxiety relieving and anti-aggressive activity); format: in vivo; conditions: Mus musculus, po, 0.5 h; orally, after 30 minutes, isolated mice
Experimental: (3) Anxiety relieving and anti-aggressive activity. Inhibition of the aggressiveness of a mouse caused by isolation.
Before the test the mice were kept for four weeks in strict isolation in single cages. After that time the mice which had been kept in isolation spontaneously attacked other mice which were introduced then and which had not been isolated. The test substances were administered to the isolated mice orally.
The results shown in these tests permit useful conclusions regarding the anxiety, stress and tension-relieving properties of the compound.

mice [2] = experiment: Pentetrazol induced convulsions (anticonvulsive); format: in vivo; conditions: Mus musculus, po, 1 h, p.o., 60 min before pentetrazol 100 mg/kg s.c., read-out: Pentetrazol spasm ED50
Experimental: (§1) (2) Anti-convulsive properties
(a) Pentetrazol induced convulsions
The compounds were tested after per oral administration to groups of six mice each. Sixty minutes after application of the test compounds pentetrazol was injected subcutaneously at a dosage of 100 mg/kg. The appearance of clonic and tonic convulsions was checked through a total observation time of 45 minutes. The protective effects of the compounds against convulsions were determined in control tests with comparison compounds. The effective dose ED50 was computed from the probit logarithmic dosage curves (modified according to J. E. Blum et al. Arzneimittel-Forsch. 23, 377 [1973]).
(§2) The results obtained by these tests show the anticonvulsive activity of the test substances. According to the medical literature this is an important criteria for the appraising of the clinical effectiveness of tranquilizers.

mice [3] = experiment: Prolongation of hexobarbital induced sleep (C.N.S. quieting properties); format: in vivo; conditions: for Quotient 1: ED50 elongation of hexobarbital induced sleep / ED50 isolation aggressiveness; for ED50: Mus musculus, po, 0.5 h, p.o., 30 min before hexobarbital 64 mg/kg i.v., prolongation by a factor of 4 in half of the mice
Experimental: (5) C.N.S. quieting properties
(Prolongation of hexobarbital induced sleep)
The test substance was applied to the mice per os. The animals after 30 minutes received additionally an intravenous injection of 64 mg/kg of hexobarbital. […] The duration of this lateral position was then compared with the control group which had been treated only with hexobarbital.
As ED50 that dose was defined at which with one-half of the animals a prolongation of the lateral position occurred by a factor of 4 as against the control group (G. M. Everett, Nature 177, 1238 [1956]).

mice [4] = experiment: Maximum electroshock (anticonvulsive); format: in vivo; conditions: Mus musculus, po, 1 h, orally, 60 min before electroshock
Experimental: as §1
The test substances were applied orally to the animals. Sixty minutes after application electrodes were fastened to the ears of the mice and an electric shock was effected. The dose was then determined at which in half of the animals tonic contractions in the rear extremities were prevented. The computation of the ED50 was again effected by means of the above-noted probit analysis (modified according to J. Swinyard, J. Pharmacol. exptl. Therap.-106, 93 [1952]).
as §2

mice [5] = experiment: Test de la traction (musculotropic properties); format: in vivo; conditions: for Quotient 2: ED50 test de la traction / ED50 isolation aggressiveness; for ED50: Mus musculus, po, 2 h, p.o., after 120 minutes, mice
Experimental: (4) Musculotropic properties
This test is called the "test de la traction". In this test the compounds were administered to the mice per os. After 120 minutes the mice were suspended with their front paws from a thin horizontally extending wire. […] These tests have the purpose to check the effects on the muscle tone by the compounds.
The ED50 values was effected via EDV by a probit analysis.

[6] = Acute seven-day toxicity (LD50), single oral application; design: species or system mice (white NMRI); conditions: mouse, in vivo, p.o., mice
Experimental: The acute seven-day toxicity is determined by a single application per os and intraperitoneally to white fasting NMRI mice. The computation of the LD50 values was effected via EDV by a probit analysis (Cavalli-Sforza, publisher Gustav Fischer, 1964, Grundbegriffe der Biometrie).

COCC1CN=C(c2ccccc2Cl)c2cc(Br)ccc2N1C (stereo not drawn) [Compound 1, 7-bromo-1-methyl-2-methoxymethyl-5-(2'-chlorophenyl)-1H-2,3-dihydro-1,4-benzodiazepin]
ED50 (mice [1]): 3.1 mg/kg | ED50 (mice [2]): 0.9 mg/kg | Quotient 1 (mice [3]): 4.9 | ED50 (mice [3]): 15.2 mg/kg | ED50 (mice [4]): 3 mg/kg | Quotient 2 (mice [5]): 28.1 | ED50 (mice [5]): 87 mg/kg | LD50 at 168 h [6]: 1580 mg/kg

CCOCC1CN=C(c2ccccc2Cl)c2cc(Br)ccc2N1C (stereo not drawn) [Compound 2, 7-bromo-1-methyl-2-ethoxymethyl-5-(2'-chlorophenyl)-1H-2,3-dihydro-1,4-benzodiazepin]
ED50 (mice [1]): 4.1 mg/kg | ED50 (mice [2]): 2.2 mg/kg | Quotient 1 (mice [3]): 10.2 | ED50 (mice [3]): 41.9 mg/kg | ED50 (mice [4]): 24.5 mg/kg | Quotient 2 (mice [5]): 8.5 | ED50 (mice [5]): 34.9 mg/kg | LD50 at 168 h [6]: > 1470 mg/kg

COCC1CN=C(c2ccccc2F)c2cc(Br)ccc2N1C (stereo not drawn) [Compound 3, 7-bromo-1-methyl-2-methoxymethyl-5-(2'-fluorophenyl)-1H-2,3-dihydro-1,4-benzodiazepin]
ED50 (mice [1]): 10.7 mg/kg | ED50 (mice [2]): 0.5 mg/kg | Quotient 1 (mice [3]): 0.9 | ED50 (mice [3]): 10.6 mg/kg | ED50 (mice [4]): 5 mg/kg | Quotient 2 (mice [5]): 5.4 | ED50 (mice [5]): 58.3 mg/kg | LD50 at 168 h [6]: 1580 mg/kg

COCC1CN=C(c2ccccc2Cl)c2cc(Cl)ccc2N1C (stereo not drawn) [Standard I, 7-chloro-1-methyl-2-methoxymethyl-5-(2'-chlorophenyl)-1H-2,3-dihydro-1,4-benzodiazepin, reference compound]
ED50 (mice [1]): 68 mg/kg | ED50 (mice [2]): 2 mg/kg | Quotient 1 (mice [3]): 0.17 | ED50 (mice [3]): 11.7 mg/kg | ED50 (mice [4]): 26 mg/kg | Quotient 2 (mice [5]): 2.4 | ED50 (mice [5]): 163 mg/kg | LD50 at 168 h [6]: 1780 mg/kg

CN1C(=O)CN=C(c2ccccc2)c2cc(Cl)ccc21 [Standard II, 7-chloro-1-methyl-5-phenyl-1,3-dihydro-2H-1,4-benzodiazepin-2-one, reference compound]
ED50 (mice [1]): 3.6 mg/kg | ED50 (mice [2]): 0.5 mg/kg | Quotient 1 (mice [3]): 0.42 | ED50 (mice [3]): 1.5 mg/kg | ED50 (mice [4]): 9 mg/kg | Quotient 2 (mice [5]): 1.2 | ED50 (mice [5]): 4.2 mg/kg
